# Target: T1, human MAGL (His-hMAGL) (Homo sapiens, UniProt Q99685)
# T1 construct: made in house; host or cells: Escherichia coli BL21(DE3)
# T1 sequence (Q99685 1-303): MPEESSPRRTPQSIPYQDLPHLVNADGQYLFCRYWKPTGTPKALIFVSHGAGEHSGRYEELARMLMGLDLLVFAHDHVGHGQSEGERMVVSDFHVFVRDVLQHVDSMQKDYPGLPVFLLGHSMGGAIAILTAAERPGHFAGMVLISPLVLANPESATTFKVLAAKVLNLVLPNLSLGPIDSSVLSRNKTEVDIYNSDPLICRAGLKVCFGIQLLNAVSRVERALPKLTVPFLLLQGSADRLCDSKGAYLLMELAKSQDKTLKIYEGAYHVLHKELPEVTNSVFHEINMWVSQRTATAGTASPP
# Assay: Measurement of MAGL inhibitory activity by mass spectrometry
# Format: biochemical
# Details: 10 μM test compound; substrate 2-arachidonylglycerol, arachidonic acid by RapidFire-mass spectrometry
# Protocol: Thereafter, to each well was added 150 μM 2-arachidonylglycerol (Tocris Bioscience) by 5 μL, and the mixture was incubated at room temperature for 10 min. Then, 2% formic acid (Wako Pure Chemical Industries, Ltd.) was added by 10 μL to discontinue the reaction. Furthermore, acetonitrile (50 μL) containing 3 μM arachidonic acid-d8 (Cayman Chemical Company) was added and the mixture was stirred. The amount of arachidonic acid in the obtained enzyme reaction mixture was calculated by measuring by RapidFire-mass spectrometry and correcting by the amount of arachidonic acid-d8. High Throughput online solid phase extraction was performed using RapidFire 300TM system (Agilent Technologies, Inc.). […] The injection needle was washed with ultrapure water (500 millisecond) and acetonitrile (500 millisecond) to minimize carry-over. […] The RapidFire300 system was controlled by RapidFire UI software version 3.6 (Agilent Technologies, Inc.). The mass spectrometry of the resultant product was performed using […] triple quadrupole mass spectrometer (AB SCIEX) equipped with an electrospray ion sauce (Turbolon SprayTM) in a negative selected reaction monitoring (SRM) mode. The conditions of SRM are shown below. The parameters of the instrument were optimized as follows: capillary temperature 600° C., ion spray voltage -4.5 kV, collision gas 8, curtain gas 15 psi, ion source gas 1 60 psi, ion source gas 2 60 psi. The mass spectrometer was controlled by AnalystTM software version 1.5.1 (AB SCIEX). The peak area integration was analyzed using RapidFire integrator software version 3.6 (Agilent Technologies, Inc.). MAGL inhibitory rate (%) was calculated according to the following calculation formula.
row,inhibition at 10 µM,SMILES
1,101%,"Cc1ccc(C)c(-c2cccc(N3CC(N4CCN(C(=O)c5nccs5)CC4)CC3=O)c2)c1 (stereo not shown) [Example 144, 1-(2′,5′-dirnethylbiphenyl-3-yl)-4-(4-(1,3-thiazol-2-ylcarbonyl)piperazin-1-yl)pyrrolidin-2-one]"
2,100%,"COc1ccccc1-c1cccc(N2CC(N3CCN(C(=O)c4nccs4)CC3)CC2=O)c1 (stereo not shown) [Example 134, 1-(2′-methoxybiphenyl-3-yl)-4-(4-(1,3-thiazol-2-ylcarbonyl)piperazin-1-yl)pyrrolidin-2-one]"
3,100%,"N#Cc1ccccc1-c1cccc(N2CC(N3CCN(C(=O)c4nccs4)CC3)CC2=O)c1 (stereo not shown) [Example 135, 3′-(2-oxo-4-(4-(1,3-thiazol-2-ylcarbonyl)piperazin-1-yl)pyrrolidin-1-yl)biphenyl-2-carbonitrile]"
4,99%,"Cc1ccnc(-c2cccc(N3CC(N4CCN(C(=O)c5nccs5)CC4)CC3=O)c2)c1 (stereo not shown) [Example 152, 1-(3-(4-rnethylpyridin-2-yl)phenyl)-4-(4-(1,3-thiazol-2-ylcarbonyl)piperazin-1-yl)pyrrolidin-2-one]"
5,101%,"O=C(c1nccs1)N1CCN(C2CC(=O)N(c3cccc(-c4ccccc4C(F)(F)F)c3)C2)CC1 (stereo not shown) [Example 138, 4-(4-(1,3-thiazol-2-ylcarbonyl)piperazin-1-yl)-1-(2′-(trifluorornethyl)biphenyl-3-yl)pyrrolidin-2-one]"

# Further lines, the molecule ahead of its results:
row,SMILES,inhibition at 10 µM
1,"O=C(c1nccs1)N1CCN(C2CC(=O)N(c3cccc(OC(F)(F)F)c3)C2)CC1 (stereo not shown) [Example 148, 4-(4-(1,3-thiazol-2-ylcarbonyl)piperazin-1-yl)-1-(3-(trifluoromethoxy)phenyl)pyrrolidin-2-one]",95%
2,"Cc1ncccc1-c1cccc(N2CC(N3CCN(C(=O)c4cscn4)CC3)CC2=O)c1 (stereo not shown) [Example 169, 1-(3-(2-methylpyridin-3-yl)phenyl)-4-(4-(1,3-thiazol-4-ylcarbonyl)piperazin-1-yl)pyrrolidin-2-one]",97%
3,"Cc1ncccc1-c1cccc(N2CC(N3CCN(C(=O)c4ncco4)CC3)CC2=O)c1 (stereo not shown) [Example 167, 1-(3-(2-methylpyridin-3-yl)phenyl)-4-(4-(1,3-oxazol-2-ylcarbonyl)piperazin-1-yl)pyrrolidin-2-one]",94%
4,"Cn1nc(C(F)(F)F)cc1-c1cccc(N2CC(N3CCN(C(=O)c4nccs4)CC3)CC2=O)c1 (stereo not shown) [Example 158, 1-(3-(1-methyl-3-(trifluoromethyl)-1H-pyrazol-5-yl)phenyl)-4-(4-(1,3-thiazol-2-ylcarbonyl)piperazin-1-yl)pyrrolidin-2-one]",99%
5,"O=C(c1nccs1)N1CCN(C2CC(=O)N(c3cccc(Nc4ccc(N5CCCC5=O)cc4)c3)C2)CC1 (stereo not shown) [Example 119, 1-(3-((4-(2-oxopyrrolidin-1-yl)phenyl)amino)phenyl)-4-(4-(1,3-thiazol-2-ylcarbonyl)piperazin-1-yl)pyrrolidin-2-one]",100%
6,"CC(=O)N1CCCC(Nc2cccc(N3CC(N4CCN(C(=O)c5nccs5)CC4)CC3=O)c2)C1 (stereo not shown) [Example 126, 1-(3-((1-acetylpiperidin-3-yl)amino)phenyl)-4-(4-(1,3-thiazol-2-ylcarbonyl)piperazin-1-yl)pyrrolidin-2-one]",97%

# Same assay, conditions: MAGL inhibitory rate, test compound 10 μM, His-hMAGL, substrate 2-arachidonylglycerol, RapidFire-mass spectrometry
row,inhibition at 10 µM,SMILES
1,84%,"O=C(c1nccs1)N1CCN(C2CC(=O)N(c3ccnc(-c4ccccc4)c3)C2)CC1 (stereo not shown) [Example 201, 1-(2-phenylpyridin-4-yl)-4-(4-(1,3-thiazol-2-ylcarbonyl)piperazin-1-yl)pyrrolidin-2-one]"
2,103%,"CCOc1ccccc1-c1cccc(N2CC(N3CCN(C(=O)c4nccs4)CC3)CC2=O)c1 (stereo not shown) [Example 289, 1-(2′-ethoxybiphenyl-3-yl)-4-(4-(1,3-thiazol-2-ylcarbonyl)piperazin-1-yl)pyrrolidin-2-one]"
3,102%,"O=C(c1nccs1)N1CCN(C2CC(=O)N(c3cccc(-c4ccccc4N4CCOCC4)c3)C2)CC1 (stereo not shown) [Example 306, 1-(2′-(morpholin-4-yl)biphenyl-3-yl)-4-(4-(1,3-thiazol-2-ylcarbonyl)piperazin-1-yl)pyrrolidin-2-one]"
4,101%,"O=C(c1nccs1)N1CCN(C2CC(=O)N(c3cccc(-c4ccc(F)c(F)c4)c3)C2)CC1 (stereo not shown) [Example 290, 1-(3′,4′-difluorophenyl-3-yl)-4-(4-(1,3-thiazol-2-ylcarbonyl)piperazin-1-yl)pyrrolidin-2-one]"
5,99%,"O=C(c1nccs1)N1CCN(C2CC(=O)N(c3cccc(-c4c[nH]c5ncccc45)c3)C2)CC1 (stereo not shown) [Example 337, 1-(3-(1H-pyrrolo[2,3-b]pyridin-3-yl)phenyl)-4-(4-(1,3-thiazol-2-ylcarbonyl)piperazin-1-yl)pyrrolidin-2-one]"
6,101%,"Cc1nn(C)cc1-c1cccc(N2CC(N3CCN(C(=O)c4nccs4)CC3)CC2=O)c1 (stereo not shown) [Example 325, 1-(3-(1,3-dimethyl-1H-pyrazol-4-yl)phenyl)-4-(4-(1,3-thiazol-2-ylcarbonyl)piperazin-1-yl)pyrrolidin-2-one]"
7,104%,"O=C(c1nccs1)N1CCN(C2CC(=O)N(c3cc(F)cc(-c4ccccc4Cl)c3)C2)CC1 (stereo not shown) [Example 350, 1-(2′-chloro-5-fluorobiphenyl-3-yl)-4-(4-(1,3-thiazol-2-ylcarbonyl)piperazin-1-yl)pyrrolidin-2-one]"

# Further lines, the molecule ahead of its results:
row,SMILES,inhibition at 10 µM
1,"O=C(c1nccs1)N1CCN(C2CC(=O)N(c3ccc4c(c3)CCN4C(=O)Cc3ccc(Cl)cc3)C2)CC1 (stereo not shown) [Example 393, 1-(1-((4-chlorophenyl)acetyl)-2,3-dihydro-1H-indol-5-yl)-4-(4-(1,3-thiazol-2-ylcarbonyl)piperazin-1-yl)pyrrolidin-2-one]",93%
2,"O=C(c1nccs1)N1CCN(C2CC(=O)N(c3ccc4c(c3)CCN4C3CC3)C2)CC1 (stereo not shown) [Example 375, 1-(1-Cyclopropyl-2,3-dihydro-1H-indol-5-yl)-4-(4-(1,3-thiazol-2-ylcarbonyl)piperazin-1-yl)pyrrolidin-2-one]",95%
3,"Cc1cc(-c2ccc(N3CC(N4CCN(C(=O)c5nccs5)CC4)CC3=O)cc2)ccn1 (stereo not shown) [Example 264, 1-(4-(2-methylpyridin-4-yl)phenyl)-4-(4-(1,3-thiazol-2-ylcarbonyl)piperazin-1-yl)pyrrolidin-2-one]",92%
4,"O=C(c1cscn1)N1CCN([C@@H]2CC(=O)N(c3ccc4c(ccn4-c4cc(C(F)(F)F)ccn4)c3)C2)CC1 [Example 425, (4R)-4-(4-(1,3-Thiazol-4-ylcarbonyl)piperazin-1-yl)-1-(1-(4-(trifluoromethyl)pyridin-2-yl)-1H-indol-5-yl)pyrrolidin-2-one]",100%
5,"O=C1Cc2ccc(-c3cccc(N4CC(N5CCN(C(=O)c6nccs6)CC5)CC4=O)c3)cc2N1 (stereo not shown) [Example 200, 6-(3-(2-oxo-4-(4-(1,3-thiazol-2-ylcarbonyl)piperazin-1-yl)pyrrolidin-1-yl)phenyl)-1,3-dihydro-2H-indol-2-one]",98%
6,"O=C(c1nccs1)N1CCN(C2CC(=O)N(c3cccc(-c4c(F)c(F)c(F)c(F)c4F)c3)C2)CC1 (stereo not shown) [Example 330, 1-(2′,3′,4′,5′,6′-pentafluorobiphenyl-3-yl)-4-(4-(1,3-thiazol-2-ylcarbonyl)piperazin-1-yl)pyrrolidin-2-one]",101%
7,"O=C(c1nccs1)N1CCN(C2CC(=O)N(c3ccc(-c4ccsc4)cc3)C2)CC1 (stereo not shown) [Example 217, 4-(4-(1,3-thiazol-2-ylcarbonyl)piperazin-1-yl)-1-(4-(3-thienyl)phenyl)pyrrolidin-2-one]",98%
8,"O=C(c1nccs1)N1CCN([C@@H]2CC(=O)N(c3ccc4c(c3)CCN4c3ccnc(C(F)(F)F)n3)C2)CC1 [Example 388, (4R)-4-(4-(1,3-thiazol-2-ylcarbonyl)piperazin-1-yl)-1-(1-(2-(trifluoromethyl)pyrimidin-4-yl)-2,3-dihydro-1H-indol-5-yl)pyrrolidin-2-one]",99%
9,"O=C(c1nccs1)N1CCN([C@@H]2CC(=O)N(c3ccc4c(c3)CCN4c3ncc(C(F)(F)F)cn3)C2)CC1 [Example 271, (4R)-4-(4-(1,3-thiazol-2-ylcarbonyl)piperazin-1-yl)-1-(1-(5-(trifluoromethyl)pyrimidin-2-yl)-2,3-dihydro-1H-indol-5-yl)pyrrolidin-2-one]",101%
10,"O=C(c1cscn1)N1CCN([C@@H]2CC(=O)N(c3ccc4c(ccn4-c4cccc(Cl)c4)c3)C2)CC1 [Example 428, (4R)-1-(1-(3-chlorophenyl)-1H-indol-5-yl)-4-(4-(1,3-thiazol-4-ylcarbonyl)piperazin-1-yl)pyrrolidin-2-one]",100%

# From patent publication US9624170B2, “4-(piperrazin-1-yl)-pyrrolidin-2-one compounds as monoacylglycerol lipase (MAGL) inhibitors” (TAKEDA PHARMACEUTICAL COMPANY LIMITED, priority 2013, dated 2017)
